Experiment: Weight gain slowing test
Assay type: in vivo, Male C57bl/6 mice
Conditions: high-fat fed mice, 50 nmol/kg every day for 56 days
Procedure: (§1) Male C57bl/6 mice were fed with high-fat feed for 4 weeks. The mice with body weights greater than 30 g were selected for the test, and were randomly divided into 26 groups, 8 mice per group. […] Fasting body weights of each group of mice on Day 1 and Day 56 were tested, and the average body weight change of each group of mice was examined.
as §1, with “7” for “26”
as §1, with “8” for “26”

Oxyntomodulin [OXM, reference compound]
fasting body weight, Day 1 (Table 3, in g (unit assumed)): 32.5 ± 0.7 | fasting body weight, Day 56 (Table 3, in g (unit assumed)): 40.3 ± 1.3 | fasting body weight, Day 1 (Table 5, in g (unit assumed)): 31.0 ± 0.8 | fasting body weight, Day 56 (Table 5, in g (unit assumed)): 41.0 ± 0.7 | fasting body weight, Day 1 (Table 7, in g (unit assumed)): 30.5 ± 0.6 | fasting body weight, Day 56 (Table 7, in g (unit assumed)): 39.6 ± 1.3 | fasting body weight, Day 1 (Table 9, in g (unit assumed)): 31.9 ± 0.6 | fasting body weight, Day 56 (Table 9, in g (unit assumed)): 42.1 ± 1.3 | fasting body weight, Day 56 (Table 11): 43.3± | fasting body weight, Day 1 (Table 11, in g (unit assumed)): 32.7
